Earlier results on 1 molecule are cited in article PMC10644342, “Improved Antibacterial Activity of 1,3,4-Oxadiazole-Based Compounds That Restrict Staphylococcus aureus Growth Independent of LtaS Function” (ACS Infectious Diseases, 2023).

One data set concerns S. aureus. On the set-up: method as in PMID 23401520. The settings on record: incubation for 3–4 days; cited from earlier work.
For a further data set, the system named is E. coli strain K12. On the set-up: method as in PMID 23401520. Conditions: initial small-molecule library screen; cited from earlier work.

Turning to `O=C(COC(=O)Cc1coc2ccc3ccccc3c12)Nc1nnc(-c2ccccc2)o1` [Compound 1771, 2-Oxo-2-((5-phenyl-1,3,4-oxadiazol-2-yl)amino)ethyl 2-(Naphtho[2,1-b]furan-1-yl)acetate, reference compound], the resistant mutant selection entry with S. aureus is on record as “did not result in resistant mutant selection”. For the same molecule, in the data set with E. coli strain K12, the “effect on the growth of Escherichia coli” value is listed as “no effect on the growth”.
